Test results from patent US20210275518A1, “METHODS OF USING REBASTINIB IN THE TREATMENT OF DISORDERS” (Deciphera Pharmaceuticals, LLC, priority 2020, published 2021).

Experiments:
[1] = tested on: endometrial adenocarcinoma; experiment: Phase 1b/2 rebastinib + paclitaxel, Part 2 Cohort 4 (RECIST v1.1); format: in vivo, human
Excerpt: (§1) Upon determination of the RP2D, Part 2 is initiated to dose up to 165 evaluable patients using the RP2D across five indication-specific cohorts. A Simon's two-stage design is applied to Part 2 to further evaluate the safety, tolerability, and preliminary efficacy of rebastinib in combination with paclitaxel in triple-negative breast (Cohort 1), inflammatory breast (Cohort 2), ovarian (Cohort 3), endometrial adenocarcinoma (Cohort 4), and gynecologic carcinosarcoma (Cohort 5) cancers. Each cohort initially enrolls up to 18 evaluable patients in the first stage. Patients must receive at least 1 dose of the combination and have 1 post-baseline assessment (including assessment of clinical progression) or be discontinued prior to the postbaseline disease assessment due to an AE at least possibly related to rebastinib, to be considered evaluable. Tumor response is assessed according to Response Evaluation Criteria in Solid Tumors (RECIST) Version 1.1. The decision to enroll patients beyond the first stage is based on response assessments obtained after the first post-dose response assessment of the last patient enrolled in the first stage of a cohort. […] If ≤4 responses are seen in a cohort, the cohort will be terminated. If >4 responses are seen prior to the last evaluable patient in the first stage, expanding the cohort may be triggered earlier. Enrollment in each cohort will pause between the first and second stage of the Simon two-stage for evaluation of response. Patients will receive study treatment until they develop progressive disease, experience unacceptable toxicity, or withdraw consent.
21 patients were enrolled and completed at least Cycle 1, Day 1 (C1D1); 18 of which had post baseline measurements. 16 of the patients treated with rebastinib were at a starting dose of 100 mg BID and 80 mg/m^2 weekly paclitaxel, of which the doses of 11 were reduced to 50 mg BID and 80 mg/m^2 weekly paclitaxel, and 5 patients were at a starting dose of 50 mg BID and 80 mg/m^2 weekly paclitaxel. Of the 21 patients who completed at least Cycle 1, Day 1, the median age was 66 years, all received at least 1 prior line of paclitaxel/carboplatin, and 20 (95%) received at least 2 prior anti-cancer therapies. Of the 21 patients who completed at least Cycle 1, Day 1, the median duration of treatment was 16 weeks. Of the 21 patients, 18 were determined to be efficacy evaluable patients (mITT).
At a third time point, 38 patients with endometrial cancer were enrolled in this portion of the study as a safety population. 16 of the patients treated with rebastinib were at a starting dose of 100 mg BID and 80 mg/m^2 weekly paclitaxel, of which the doses of 11 were reduced to 50 mg BID and 80 mg/m^2 weekly paclitaxel, and 22 patients were at a starting dose of 50 mg BID and 80 mg/m^2 weekly paclitaxel. 33 of the 38 patients met the met the modified intention-to-treat (mITT) criteria.

[2] = Pharmacokinetics of rebastinib given with carboplatin; format: in vivo; details: time point 2; 50 and 100 mg BID with carboplatin
Procedure: This is a Phase 1b/2 study where patients with mesothelioma are administered rebastinib in combination with carboplatin. The study follows a Simon 2-stage design at the MTD and R2PD. Safety and tolerability, PK and PD, and preliminary efficacy data was used to determine the RP2D. Upon determination of the RP2D or MTD, the Simon 2-stage design is initiated to dose evaluable patients using the RP2D or MTD across three indication-specific cohorts (breast cancer, ovarian cancer, and mesothelioma).

[3] = tested on: inflammatory breast cancer; experiment: Phase 1b/2 rebastinib + paclitaxel, Part 2 Cohort 2 (RECIST v1.1); format: in vivo, human
Excerpt: as §1

[4] = tested on: gynecologic carcinosarcoma; experiment: Phase 1b/2 rebastinib + paclitaxel, Part 2 Cohort 5 (RECIST v1.1); format: in vivo, human; details: Cycle 5, Day 1
Excerpt: as §1, with “Enrollment in each cohort will pause between the first and second stage of the Simon two-stage for evaluation of response. Patients will receive study treatment until they develop progressive disease, experience unacceptable toxicity, or withdraw consent.” left out

[5] = Pharmacokinetics of rebastinib given with paclitaxel (Part 1); format: in vivo, human; details: 50 mg BID and 100 mg BID in combination with paclitaxel
Excerpt: This is an open-label Phase 1b/2 multicenter study in patients with advanced or metastatic solid tumors where paclitaxel may be considered appropriate treatment. Rebastinib will be administered in combination with paclitaxel in repeated 28-day cycles to primarily assess the safety, tolerability and preliminary efficacy of the combination. Adverse events (AEs) will be assessed, and laboratory values, vital sign measurements, electrocardiograms (ECGs), ophthalmologic examinations, physical examinations and Eastern Cooperative Oncology Group (ECOG) Performance Status (PS) will be obtained to evaluate the safety and tolerability of rebastinib when administered in combination with paclitaxel. Pharmacokinetic (PK) and pharmacodynamic (PD) samples will be collected at pre-specified time points.

[6] = Cohort 4, time point 1, of the eight with stable disease at Cycle 3, Day 1, Cycle 5, Day 1
[7] = Cohort 4, time point 1, rebastinib + paclitaxel, Cycle 3, Day 1
[8] = Cohort 4, time point 2, 18 evaluable patients (mITT)
[9] = Cohort 4, time point 3, of 3 patients who had received Lenvatinib/pembrolizumab
[10] = Cohort 4, time point 4, 33 evaluable patients
[11] = Table 2, Cohort 4, time point 3, mITT N = 33, patients (%)
[12] = Table 2, Cohort 4, time point 3, n 11

Compound: CNC(=O)c1cc(Oc2ccc(NC(=O)Nc3cc(C(C)(C)C)nn3-c3ccc4ncccc4c3)c(F)c2)ccn1 [rebastinib]
- Patients with stable disease at Cycle 5, Day 1 and partial response at Cycle 8, Day 1 ([1]; Cohort 4, time point 1, of the eight with stable disease at Cycle 3, Day 1): one
- Patients with partial response [1, 6]: one
- Patients with stable disease [1, 6]: four
- Patients with partial response ([1]; Cohort 4, time point 1, of the four with partial response at Cycle 3, Day 1, Cycle 5, Day 1): two
- Patients with partial response ([1]; Cohort 4, time point 1, of the four with partial response at Cycle 3, Day 1, both Cycle 5, Day 1 and Cycle 8, Day 1): two
- Patients with partial response [1, 7]: four
- Patients with stable disease [1, 7]: Eight
- CBR at 8 weeks [1, 8]: 72%
- ORR [1, 8]: 39%
- Stable disease (SD) determinations [1, 8]: 6
- Partial response (PR) determinations ([1]; Cohort 4, time point 2, 18 evaluable patients (mITT), rebastinib 100 or 50 mg BID with weekly paclitaxel 80 mg/m^2): 7
- Clinical benefit rate at 16 weeks ([1]; Cohort 4, time point 3, 33 patients mITT): 53%
- Objective response rate (ORR) ([1]; Cohort 4, time point 3, 33 patients mITT, rebastinib 100 or 50 mg BID with weekly paclitaxel 80 mg/m^2): 33%
- ORR across subgroups ([1]; Cohort 4, time point 3, FIG. 7, subgroups by age, number of prior regimens, number of prior paclitaxel regimens, histology): consistent
- Patients with partial response [1, 9]: 2
- Patients with stable disease [1, 9]: 1
- Outcome of serious adverse events related (or possibly) to rebastinib ([1]; Cohort 4, time point 4): resolved after dose interruption
- Clinical benefit at 8 weeks [1, 10]: 70%
- Clinical benefit at 16 weeks [1, 10]: 54%
- Confirmed PRs [1, 10]: 8
- PRs [1, 10]: 11
- ORR ([1]; Cohort 4, time point 4, 33 evaluable patients, rebastinib 100 or 50 mg BID with weekly paclitaxel 80 mg/m^2): 33%
- KM median duration of response ([1]; Cohort 4, time point 4, 90% CI: 2.7, NE, median follow up 4.4 months): 7.4 months
- Median PFS ([1]; Cohort 4, time point 4, 90% CI: 3.7, 9.4): 6.2 months
- Best Overall Response: Confirmed Partial Response [1, 11]: 8 (24.2%)
- Best Overall Response: Not Evaluable: discontinued prior to radiological assessment [1, 11]: 5 (15.2%)
- Best Overall Response: Partial Response [1, 11]: 11 (33.3%)
- Best Overall Response: Progressive Disease [1, 11]: 6 (18.2%)
- Best Overall Response: Single Response Awaiting Confirmation [1, 11]: 1 (3.0%)
- Best Overall Response: Stable Disease [1, 11]: 11 (33.3%)
- Best Overall Response: Unconfirmed Single Response [1, 11]: 2 (6.1%)
- Duration of Response, Events (%) [1, 12]: 3 (27.3)
- Time to Response, Mean (SD) [1, 12]: 3.3 (1.7)
- Duration of Response, Kaplan-Meier Median (80% CI) ([1]; Table 2, Cohort 4, time point 3, n 11, NE: Not evaluated): 7.4 (7.4, NE)
- Rebastinib exposure [2]: dose proportional
- Patients with partial response ([3]; Cycle 3, Day 1): two
- Patients with stable disease ([3]; Cycle 3, Day 1): one
- Patients with partial response ([3]; Cycle 3, Day 1, Cycle 5, Day 1, and Cycle 8, Day 1): one
- Patients with stable disease ([3]; both Cycle 3, Day 1 and Cycle 5, Day 1): one
- Patients with partial response [4]: one
- Exposure to rebastinib [5]: dose proportional
